Results: the supplement of paper PMC3493320

System: NCI-H295R
Experiment: IC50 (antiproliferative, ATP content)
Settings: 48 h
Method in brief: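 Following overnight culture of adrenocortical carcinoma cells (1500 per well) in 1536-well plates with serum-free ITS-supplemented DMEM, library compounds were pin-transferred at 8 final concentrations from 0.6 nM to 46 µM. Incubation lasted 48 h at 37 °C, 5% CO2, and the CellTiter-Glo signal was read after 20 min at room temperature. Data were fitted with a four-parameter logistic model. Each IC50 came from that fit after normalisation to vehicle and positive-control wells, and compounds without a concentration response were reported as above the top dose.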

| IC50 [µM] | SMILES |
| --- | --- |
| > 46 | CC[N+](C)(CC)CCOC(=O)C1c2ccccc2Oc2ccccc21.[Br-] |
| > 46 | Cc1c(Cn2ccnc2)c2ccccc2n1CCC(=O)O |
| > 46 | O=C(O)c1ccc(OCCCOc2ccc(C(=O)O)cc2)cc1 |
| > 46 | NC(=O)c1ncn([C@@H]2O[C@H](CO)[C@@H](O)[C@H]2O)c1N |
| > 46 | CCN(CC)CCNC(=O)c1cc(Br)c(N)cc1OC |
| > 46 | CC(=O)CCC(=O)[O-].CC(=O)CCC(=O)[O-].O.O.[Ca+2] |
| > 46 | CC(=O)CC(c1ccc([N+](=O)[O-])cc1)c1c(O)c2ccccc2oc1=O (stereo unspecified) |
| > 46 | CC(=O)N[C@H]1[C@@H](O[C@@H]2C(C(=O)[O-])C[C@@H](O[C@H]3[C@H](C)[C@@H](NS(=O)(=O)O)[C@@H](OC4C(C(=O)[O-])O[C@@H](OC5[C@H]6CO[C@H](O6)[C@H](NS(=O)(=O)[O-])[C@H]5O)[C@H](O)[C@H]4O)O[C@@H]3COS(=O)(=O)O)[C@H](O)[C@H]2O)O[C@H](COS(=O)(=O)O)[C@@H](O[C@@H]2OC(C(=O)[O-])=C[C@H](O)[C@H]2OS(=O)(=O)O)[C@@H]1O.[Na+].[Na+].[Na+].[Na+] (stereo partly specified) |
| > 46 | O=C(c1cc2ccccc2o1)N1CCN(Cc2ccccc2)CC1 |
| > 46 | c1ccc2sc(SN3CCOCC3)nc2c1 |
| > 46 | Cl.NNc1nncc2ccccc12 |
| > 46 | COc1cnc(NS(=O)(=O)c2ccc(N)cc2)nc1 |
| > 46 | Cl.Clc1ccc(Cn2c(CN3CCCC3)nc3ccccc32)cc1 |
| > 46 | CCN(CC)CC1CCCCN1CC(=O)N1c2ccccc2C(=O)Nc2cccnc21 (stereo unspecified) |
| > 46 | CC(O)Cn1cnc2c1c(=O)n(C)c(=O)n2C (stereo unspecified) |
| > 46 | CC(=O)Oc1cccc2c1C(=O)c1c(OC(C)=O)cc(C(=O)O)cc1C2=O |
| > 46 | COc1ccc(CN(CCN(C)C)c2ncccn2)cc1.Cl |
| > 46 | O=C(N[C@@H](CO)C(N[C@H](C(N[C@H](COC(C)(C)C)C(N[C@@H](CC(C)C)C(N[C@@H](CCCNC(N)=N)C(N6[C@H]([C@@](NNC(N)=O)=O)CCC6)=O)=O)=O)=O)CC4=CC=C(O)C=C4)=O)[C@@H](NC([C@@H](N[C@@]([C@@H](N5)CCC5=O)=O)CC3=CNC=N3)=O)CC1=CNC2=C1C=CC=C2.O=C(C)O |
| > 46 | CC(C)(S)[C@@H](N)C(=O)O |
| > 46 | CCOC(=O)c1ccccc1O |
| > 46 | CCCN(CCc1cccs1)[C@H]1CCc2c(O)cccc2C1 |
| > 46 | NS(=O)(=O)c1cc2c(cc1C(F)(F)F)NCNS2(=O)=O |
| > 46 | C[C@](N)(Cc1ccc(O)c(O)c1)C(=O)O.C[C@](N)(Cc1ccc(O)c(O)c1)C(=O)O.O.O.O |
| > 46 | O=C(N[C@H](CO)[C@H](O)c1ccc([N+](=O)[O-])cc1)C(Cl)Cl |
| > 46 | ClC(Cl)Cl |
| > 46 | COc1nccnc1NS(=O)(=O)c1ccc(N)cc1 |

| IC50 [µM] | SMILES |
| --- | --- |
| > 46 | CCCCCCCCCCCCCCCC(=O)OCC(COC(=O)CCCCCCCCCCCCCCC)OC(=O)CCCCCCCCCCCCCCC |
| > 46 | CCc1cn([C@H]2C[C@H](O)[C@@H](CO)O2)c(=O)[nH]c1=O |
| > 46 | CC=Cc1ccc(OC)cc1 |
| > 46 | COc1ccnc(CS(=O)c2nc3cc(OC(F)F)ccc3[nH]2)c1OC (stereo unspecified) |
| > 46 | CCn1nc(C(=O)O)c(=O)c2cc3c(cc21)OCO3 |
| > 46 | CCCNC(C)(C)COC(=O)c1ccccc1.Cl |
| > 46 | O=c1cc(O)c(Cl)c[nH]1 |
| > 46 | Nc1nc(=O)c(Br)c(-c2ccccc2)[nH]1 |
| > 46 | [O]=[Bi][O][Bi]=[O] |
| > 46 | Cl.O=C(c2cn(C)c1ccccc12)[C@H]3CC=4N\C=N/C=4CC3 |
| > 46 | CC(=O)O.CNC(=N)NCCC[C@H](N)C(=O)O |
| > 46 | O=C(CO)[C@@H](O)[C@H](O)[C@@H](O)C(=O)[O-].O=C(CO)[C@@H](O)[C@H](O)[C@@H](O)C(=O)[O-].[Ca+2] |
| > 46 | O=c1[nH]cnc2c1ncn2[C@H]1CC[C@@H](CO)O1 |
| > 46 | Cc1ncc(COP(=O)(O)O)c(C=O)c1O.O |
| > 46 | Cc1cccc(Nc2ccncc2S(=O)(=O)NC(=O)NC(C)C)c1 |
| > 46 | O=C([C@@H]([C@]1=CC=CC=C1)N=C)N[C@@](C2=O)([H])[C@@](N2[C@H]3[C@@]([O-])=O)([H])SC3(C)C.[Na+] |
| > 46 | Nc1ccc(S(=O)(=O)Nc2nccs2)cc1 |
| > 46 | O=C1NN=C(C2=CC=C(C=C2)N/N=C(C#N)/C#N)[C@@H](C1)C |
| > 46 | C=C[C@@]1(C)CC(=O)[C@]2(O)[C@@]3(C)[C@@H](O)CCC(C)(C)[C@@H]3[C@H](O)[C@H](OC(C)=O)[C@@]2(C)O1 |
| > 46 | CC1(C)S[C@@H]2[C@H](NC(=O)C(C(=O)[O-])c3ccccc3)C(=O)N2[C@H]1C(=O)[O-].[Na+].[Na+] (stereo partly specified) |
| > 46 | O=C([O-])CCC/C=C\C[C@@H]1[C@@H](/C=C/[C@@H](O)COc2cccc(Cl)c2)[C@H](O)C[C@@H]1O.[Na+] |
| > 46 | COc1ccc2cc3[n+](cc2c1OC)CCc1cc2c(cc1-3)OCO2.[Cl-] |
| > 46 | CC12CCC(CC1)C(C)(C)O2 |
| > 46 | CNCc1ccccc1.Cl |
| > 46 | c1ccc2[nH]c(-c3cscn3)nc2c1 |
| > 46 | CCCCCCCC/C=C\CCCCCCCCN |

| IC50 [µM] | SMILES |
| --- | --- |
| > 46 | CC(=O)NC[C@H]1CN(c2ccc(N3CCOCC3)c(F)c2)C(=O)O1 |
| > 46 | NCCc1ccc(O)c(O)c1 |
| > 46 | O=C(O)Cc1csc(-c2ccc(Cl)cc2)n1 |
| > 46 | Cn1c(=O)c2c(ncn2CCOC(=O)C(C)(C)Oc2ccc(Cl)cc2)n(C)c1=O |
| > 46 | CC(=O)N[C@@H](CC(C)C)C(=O)O |
| > 46 | O=C(O)c1ccccc1OP(=O)(O)O |
| > 46 | NC(=O)c1ncn([C@@H]2O[C@H](CO)[C@@H](O)[C@H]2O)c1O |
| > 46 | Cc1c(C(=O)NCCO)[n+]([O-])c2ccccc2[n+]1[O-] |
| > 46 | CCCCC(CC)CN1CN(CC(CC)CCCC)CC(C)(N)C1 (stereo unspecified) |
| > 46 | O=C(c1ccccc1)C(O)c1ccccc1 (stereo unspecified) |
| > 46 | COc1ccc(C(=O)N2CCN(CC(=O)N3CCOCC3)CC2)cc1 |
| > 46 | Cl.OC(CCN1CCCCC1)(c1ccccc1)C1CC2C=CC1C2 (stereo unspecified) |
| > 46 | Cn1c(=O)c2c(ncn2CC(O)CO)n(C)c1=O (stereo unspecified) |
| > 46 | CC(C)=CCC/C(C)=C/CO |
| > 46 | CN(C(=O)c1c(O)c2ccccc2n(C)c1=O)c1ccccc1 |
| > 46 | CCOC(=O)C(CS)NCCNC(CS)C(=O)OCC.Cl.Cl (stereo unspecified) |
| > 46 | Nc1ccc(C=Cc2ccc(N)cc2S(=O)(=O)O)c(S(=O)(=O)O)c1 |
| > 46 | Nc1ccc(S(=O)(=O)Nc2ccc(Cl)nn2)cc1 |
| > 46 | CCOC(=O)Cc1ccc(-c2ccccc2)cc1 |
| > 46 | NCC(O)CC(=O)O (stereo unspecified) |
| > 46 | CCN(CC)CCNC(=O)COc1ccc(Cl)cc1 |
| > 46 | N=C(N)NCC1COc2ccccc2O1 (stereo unspecified) |
| > 46 | O=[C@@]([C@@H]2CC[C@@H](CN)CC2)OC1=CC=C(CCC(O)=O)C=C1.Cl |
| > 46 | Cc1nc(Nc2ncc(C(=O)Nc3c(C)cccc3Cl)s2)cc(N2CCN(CCO)CC2)n1 |

| SMILES | IC50 [µM] |
| --- | --- |
| COC(=O)C(c1ccccc1)C1CCCCN1.Cl (stereo unspecified) | > 46 |
| O=[C@@](OC)[C@H](C2=CC=CC=C2Cl)N1CC(C=CS3)=C3CC1.O=S(O)(O)=O | > 46 |
| O=C3/C=C4/CC[C@@H]2[C@H](CC[C@]1(C)C(=O)CC[C@H]12)[C@@]4(C)CC3 | > 46 |
| C#C[C@]1(O)CC[C@H]2[C@@H]3CCC4=CC(=O)CCC4=C3C=C[C@@]21CC | > 46 |
| C=CCN1CC[C@]23c4c5ccc(O)c4O[C@H]2C(=O)CC[C@@]3(O)[C@H]1C5 | > 46 |
| CN1CCN(C(=O)O[C@H]2c3nccnc3C(=O)N2c2ccc(Cl)cn2)CC1 | > 46 |
| CCOCC(O)COc1ccc(NC(=O)CC[S+](C)C)cc1.Cc1ccc(S(=O)(=O)[O-])cc1 (stereo unspecified) | > 46 |
| CCOC(=O)C1(c2ccccc2)CCN(CCC(C#N)(c2ccccc2)c2ccccc2)CC1.Cl | > 46 |
| CNC1(c2ccccc2Cl)CCCCC1=O (stereo unspecified) | > 46 |
| CCN[C@@H]1C[C@H](N)[C@@H](OC2OC(CN)=CCC2N)[C@H](O)[C@H]1O[C@H]1OC[C@](C)(O)[C@H](NC)[C@H]1O.CCN[C@@H]1C[C@H](N)[C@@H](OC2OC(CN)=CCC2N)[C@H](O)[C@H]1O[C@H]1OC[C@](C)(O)[C@H](NC)[C@H]1O.O=S(=O)(O)O.O=S(=O)(O)O.O=S(=O)(O)O.O=S(=O)(O)O.O=S(=O)(O)O (stereo partly specified) | > 46 |
| C[C@]12C[C@H]3S[C@H]3C[C@@H]1CC[C@@H]1[C@@H]2CC[C@]2(C)[C@@H](O)CC[C@@H]12 | > 46 |
| CC(C)NCC(O)c1ccc(N)c(C#N)c1 (stereo unspecified) | > 46 |
| COc1ccc2c(c1)N(C[C@H](C)CN(C)C)c1ccccc1S2.O=C(O)/C=C\C(=O)O | > 46 |
| CCn1cc(C(=O)O)c(=O)c2cc(F)c(N3CCN(C)CC3)cc21.CS(=O)(=O)O | > 46 |
| CNC(C)(C)Cc1ccccc1.CNC(C)(C)Cc1ccccc1.O=S(=O)(O)O | > 46 |
| CC(C)[N+](C)(CCC(C(N)=O)(c1ccccc1)c1ccccc1)C(C)C | > 46 |
| COC1=CC=C2[C@H]3Cc4ccc(OC)c5c4[C@@]2(CCN3C)[C@H]1O5 | > 46 |
| CC(C)NNC(=O)c1ccncc1.O=S(=O)(O)O | > 46 |
| CCCCC[C@@H](O)C1C(=O)OC(C)C(O)/C=C/C=C/C=C/C=C/C=C(\C)C(O)C(O)C(O)C[C@H](O)C[C@H](O)C[C@H](O)C[C@H](O)C[C@@H]1O (stereo partly specified) | > 46 |
| O.O.O.O.[Na+].[O-]c1ccccc1-c1ccccc1 | > 46 |
